Test results reported in patent EP0088462A2, “Anti-inflammatory and rheumatic composition containing organophosphonate and steroid” (THE PROCTER & GAMBLE COMPANY, priority 1982, dated 1983).
Marks after values point to notes of the source that are not given here.

Tested on: rat adjuvant arthritis
Assay: Rat adjuvant arthritis (Example I): paw edema, bone changes and systemic parameters after 46 days of daily treatment
Format: in vivo, male Lewis rats
Conditions: for Group Average Fat Free Dry Weight of Bone from Tibias: daily
Text: One hundred and twenty-five (125) male Lewis rats weighing between 160 and 180 grams each were randomly divided into 12 groups of ten rats each, except the vehicle control group which had 15 rats. Each group was placed under a treatment regimen as described in the table below for a 46 day period.
Adjuvant arthritis was induced in groups one through twelve by a single intradermal injection of heat-killed Mycobacterium butyricum in paraffin oil. The drug treatments wen begun on the same day that the adjuvant was administered, and continued on a daily basis through the study. Drug doses were adjusted each week for changes in body weight.
Paw edema was measured weekly by liquid displacement, immersing the hind legs in a liquid reservoir to the anatomical hair line. Bone changes were evaluated radiographically and by chemical analysis at the conclusion of the study. Ectopic calcification was quantitated by use of a point-counting system with grids of one millimeter square.
The diphosphonate treatment solution for use on the animals in group 2, 3, 7-12, was prepared as follows: the disodium salt of dichloromethane diphosphonic acid was dissolved in saline, adjusted to a pH of 7.4 using sodium hydroxide, and sterilized by vacuum filtration (0.2 micron). The concentration of this solution was adjusted to a concentration of 5 mg of C12 MDP (disodium salt) per milliliter of solution.
The prednisolone to be administered was suspended in […]. The concentration of this suspension was adjusted to 0.10 milligram per milliliter so that it could be administered at a dose volume of 0.5 ml/100 gm body weight.
The disodium salt of Cl2MDP was administered by subcutaneous ventral flank injections. The prednisolone was administered by gastric intubation.
At the end of the treatment period, the rats were sacrificed, necropsied, and the effects of the treatment on the rats were measured in the categories listed below.

[1] = single agent versus placebo (saline and methyl cellulose)

| Structure (SMILES) | Group Average Fat Free Dry Weight of Bone from Tibias (Cl2MDP none, Prednisolone 0.25 mg/kg by gastric intubation) | Group Average Fat Free Dry Weight of Bone from Tibias (Cl2MDP none, Prednisolone 0.50 mg/kg by gastric intubation) | Group Average Fat Free Dry Weight of Bone from Tibias (Cl2MDP none, Prednisolone 2.50 mg/kg by gastric intubation) | inhibiting pathological caldivication (prednisolone alone) | inhibiting the calcium and phosphorus in bone (prednisolone alone) | inhibiting paw edema [1] | Group Average Fat Free Dry Weight of Bone from Tibias (Cl2MDP 2 mg/kg subcutaneous, Prednisolone none) | Group Average Fat Free Dry Weight of Bone from Tibias (Cl2MDP 5 mg/kg subcutaneous, Prednisolone none) | inhibiting bone changes associated with arthritic disease [1] | inhibiting loss of body, weight [1] | inhibiting spleen weight/body weight ratio [1] |
| --- | --- | --- | --- | --- | --- | --- | --- | --- | --- | --- | --- |
| C[C@]12C=CC(=O)C=C1CC[C@@H]1[C@@H]2[C@@H](O)C[C@@]2(C)[C@H]1CC[C@]2(O)C(=O)CO [Prednisolone, 11 β, 17, 21-Trihydroxypregna-1,4-diene-3, 20-dione] | 308.96 | 311.56 | 315.58 | effective | effective | effective | – | – | – | – | – |
| O=P(O)(O)C(Cl)(Cl)P(=O)(O)O [Cl2MDP, Dichloromethanediphosphonic acid] | – | – | – | – | – | significantly more effective than the placebo | 372.48* | 382.42* | significantly more effective than the placebo | significantly more effective than the placebo | significantly more effective than the placebo |
